Laboratory results: a melting point compilation (Tetko et al.; mined from patent text by program, amines drawn as free bases though some values may be those of a salt)

Point of comparison: `CC(C)NC(=O)c1ccc(F)c2c1CC(N(CCCc1c[nH]c3ccc(F)cc13)C1CCC1)CO2` (configuration not stated), melting point 127 °C. Against it:
- O=C(CNC(=O)c1ccc([N+](=O)[O-])c(I)c1)OCC(Cl)(Cl)Cl — lower, 98 to 100 °C
- NC(=O)c1csc(-c2cccc(N)c2)n1 — higher, 173 to 174 °C
- C#CCN1N=C(c2ccc(Cl)cc2)CN(C)C1=O — higher, 159 to 160 °C
- COc1ccc(C=Cc2ccccc2)c(-c2ccc(-c3cc(OC)ccc3C=Cc3ccccc3)n2-c2ccc(C)cc2)c1 — higher, 303 to 305 °C
- CN1CCCN(C(=O)Nc2ccccc2Cc2ncc[nH]2)CC1 — higher, 139 to 143 °C
- O=C(Nc1cc(C(=O)O)cc(C(=O)O)c1)Oc1ccccc1 — higher, > 300 °C
- CC(=O)NCCC1=CCc2ccc3c(c21)CCO3 — higher, 153 to 155 °C
- CCN(CC)CCNS(=O)(=O)c1ccc(Nc2cnnc3cc(Cl)ccc23)cc1 — higher, 175 to 176 °C
- COCCNC(=O)C(NC(=O)OCc1ccccc1)c1ccc2c(c1)CCO2 (configuration not stated) — lower, 90 to 110 °C
- CC(=O)Nc1ccc2c(c1)NC(=O)CC2(C)C — higher, 273 to 278 °C
- Cc1c(OCc2ccccc2)c(=O)ccn1CCC(=O)O — lower, 81 to 83 °C
- NS(=O)(=O)c1cc(C(F)(F)F)cc(C(F)(F)F)c1 — higher, 183 to 185 °C
- CCc1cc(C(=O)c2ccccc2Cl)c(-n2cnnc2CNC(=O)c2cc3ccccc3n2CC(=O)O)s1 — higher, 218 to 220 °C
- Cc1cc(-c2cc(C(F)(F)F)n3ncc(C(=O)Nc4cccc(S(=O)(=O)NC5CC5)c4)c3n2)ccc1Cl — higher, 244 °C
- Cc1csc2ncc(CO)n12 — higher, 161 to 162 °C
- COc1cccc(Cn2c(=O)c3c(Cl)cc(Cl)cc3n(Cc3ccccc3)c2=O)c1 — lower, 106 to 108 °C
- O=[N+]([O-])C=C1CN=C(c2ccccc2Cl)c2cc(Cl)ccc2N1 — higher, 182 to 185 °C
- O=Cc1csc2ccc(O)cc12 — higher, 200 °C
- CCOC(=O)C=Cc1cnc2ccccc2c1 — lower, 86.5 to 88 °C
- C=C(CC(=O)Nc1cccc(/C=C/c2nc(C3CCCCC3)cs2)c1)C(=O)O — higher, 187 to 189 °C
- CS(=O)(=O)c1ccc(-c2nn3c4c(oc3c2-c2ccc(F)cc2)CSCC4)cc1 — higher, 178 to 180 °C
- CN(Cc1cccs1)C(=O)C1(c2ccc(F)cc2)CCCC1 — lower, 72 to 75 °C
- C=C(CCCCCCCCC)C(N)=O — lower, 80 to 81 °C
- Cc1ccc(S(=O)(=O)N(C)c2cccc(-c3ccnc4c(C(=O)c5ccccc5)cnn34)c2)cc1 — higher, 170 to 171 °C
- Cn1c(=O)[nH]c(=O)c2c1ncn2Cc1noc(C2CCCCC2)n1 — higher, 245 to 248 °C
- O=c1c2c(Cl)cccc2nc(CSc2ncnc3[nH]cnc23)n1-c1ccccc1F — higher, 244 °C
- Nc1cnnc(Cl)c1Cl — higher, 150 to 151 °C
- Cc1cc(CCCOc2c(C)cc(-c3noc(C#N)n3)cc2C)on1 — lower, 93 to 94 °C
- CCCCc1nc(Cl)c(CC(=O)OCC)c(Cc2ccc(C(=O)OC(C)(C)C)cc2)n1 — lower, 65 °C
- O=C(O)C(Cc1ccccc1)Oc1ccc(-c2ccc(-c3c(Cc4ccc(O)c(O)c4)sc4ccccc34)cc2)cc1 (configuration not stated) — lower, 108 to 110 °C
- CS(=O)(=O)N(C(=O)OCc1ccccc1)c1cc(O)ccc1OCc1ccccc1 — higher, 138 to 140 °C
- CC(=O)c1ccc(Nc2ccccc2)cc1 — lower, 105 °C
- Cc1[nH]nc(CN2CCN(Cc3c[nH]c4ncccc34)CC2)c1-c1ccccc1 — higher, 154 to 156 °C
- CCCCCCCCCCCCCCCCCCNC(=O)c1cc(OC(C)=O)cc(OC(C)=O)c1 — lower, 99 to 101 °C
- CCNCC1CCN(c2c(F)cc3c(=O)c(C(=O)O)cn(C4CC4)c3c2C(F)(F)F)C1 (configuration not stated) — higher, 239 to 241 °C
- N#Cc1cnc2sc(-c3ccccc3)cc2c1Nc1cccc2cc[nH]c12 — higher, > 245 °C
- COc1cc2c(c(OC)c1OC)C=C(C=CC(=O)N1CCC(C3CCN(C(=O)C=CC4=Cc5c(cc(OC)c(OC)c5OC)CC4)CC3)CC1)CC2 — higher, 253 to 256 °C
- Cc1cc(Oc2ccc(S(C)(=O)=O)nc2)cc2cc(C3=NCC(CC(=O)NC[C@@H](C)O)S3)[nH]c12 (some centres not stated) — higher, 168 to 169 °C
- COC(=O)c1ncncc1OC — lower, 75 °C
- Cc1ccc2[nH]c(-c3ccc(S(C)(=O)=O)cc3)c(-c3ccccc3)c2c1 — higher, 245 to 247 °C
- OC(CSC1CCCCC1)CSC1CCCCC1 — lower, 85.5 to 88.5 °C
- CCOc1ccccc1-c1cc(NC(=O)C2CCN(CC)CC2)ncn1 — lower, 65 to 67 °C
- CN(CC(N)=O)S(=O)(=O)Cc1cccc(C(F)(F)F)c1 — higher, 146 to 148 °C
- CCCCCCCCCC(=O)c1ccc(O)c(C(=O)O)c1 — lower, 118 to 119 °C
- Cc1[nH]c2ccccc2c1CCCN1CCC(c2noc3cc(F)ccc23)CC1 — higher, 208 to 210 °C
- O=C(NCCCO)c1ccc(O)cc1 — lower, 118 to 120 °C
- O=c1[nH]c(=O)n(C2CC(F)C(CO)O2)cc1C#CI (configuration not stated) — higher, 140 °C
- COc1cc2c(cc1O)C1Cc3c(Cl)cc(OC)c(O)c3CN1CC2 (configuration not stated) — higher, 136 to 138 °C
- Nc1ccc(C(=O)c2cccc(F)c2)cc1 — lower, 98 to 100 °C
- Cc1[nH]c2cccc(/C=C/C(=O)OCc3ccccc3)c2c1Cn1ccnc1 — higher, 207 to 208 °C
- C[C@H](N)C(=O)Nn1cccc1 — lower, 63 to 66 °C
- COc1cc(C(C)=O)ccc1OCCCN1C2CCC1CC(c1n[nH]c3ccccc13)C2 (configuration not stated) — higher, 173 to 175 °C
- O=C(Nc1cc(Cl)cc(Cl)c1)c1ccc(Cl)cc1O — higher, 255 to 256 °C
- CCOC(=O)C(=Cc1ccccc1[N+](=O)[O-])C(=O)C(OCC)OCC — lower, 66 to 67.5 °C
- CC(=O)C(C(=O)c1ccccc1)=C1CCCN1 — lower, 106 to 108 °C
- CCN(CC)C(=O)c1ccc(C(c2cccc(O)c2)N2CC(C)N(CC#N)CC2C)cc1 (configuration not stated) — higher, 190 to 192 °C
- CC1(C)O[C@@H](CN=C2OCc3ccccc32)[C@H](CN=C2OCc3ccccc32)O1 — higher, 204 °C
- OCc1cnoc1-c1ccc(F)cc1F — lower, 60 to 61 °C
- CC=CC(=O)Oc1cc(C)nc(C(Cl)(Cl)Cl)n1 — lower, 55 °C
- CN1CC(CN2CC(=O)NC2=O)CC2c3cccc4[nH]cc(c34)CC21 (configuration not stated) — higher, 199 to 201 °C
- O=C(Cl)c1c(Oc2ccccc2)cccc1Oc1ccccc1 — lower, 72 to 73 °C
- Cn1cnc(COc2n[nH]c(C=O)c2-c2ccccc2)n1 — higher, 202 to 205 °C
- c1ccc(-c2cn[nH]c2)nc1 — higher, 136 °C
- O=C(O)Cc1cc(C(=O)c2ccc(Br)cc2)sc1-c1ccccc1 — higher, 147 to 150 °C
- COc1nc2ccccc2cc1NC(=O)N1CCN(c2cccc(OCC3CC3)c2)CC1 — higher, 146 to 147 °C
- N#Cc1ncn2c(-c3cccnc3)ccnc12 — higher, 258 to 260 °C
- OC(c1ccc2c(c1)SCCN2)(C(F)(F)F)C(F)(F)F — lower, 99 to 100 °C
- CNC(=O)c1ccccc1Nc1nc(Nc2cc3c(cc2OC)C(=O)N(C)CCC3)ncc1Cl — higher, 152 to 154 °C
- CCCC1CC(NCC)=C(c2cccc(C(F)(F)F)c2)C1=O (configuration not stated) — lower, 120 °C
- O=C(Nc1ccc(C(=O)N2Cc3ccccc3Sc3ccccc32)cc1)c1ccccc1Cl — lower, 116 to 119 °C
- CCOc1nc(NCCN2CCCC2)nc(Nc2ccc(F)c(Cl)c2)n1 — lower, 111 to 113 °C
- CN1CCN(C(=O)CN2C(=O)C(NC(=O)Nc3ccc(Cl)cc3)N=C(c3ccccc3)c3ccccc32)CC1 (configuration not stated) — higher, 278 to 280 °C
- Cc1nc(N2CCN(Cc3ccc(C#N)cc3)C2=O)sc1C(=O)NCc1ccccc1 — higher, 176 to 178 °C
- C=CCOc1ccc(-c2cc3ccccc3[nH]2)cc1 — higher, 214 °C
- CCOC(=O)Cc1cccc(NC=O)n1 — lower, 35 to 38 °C
- CC1(C)Cc2ccc(C#N)cc2N(C(=O)Nc2cccnc2)C1 — higher, 164 to 166 °C
- COc1cc(Cl)ccc1-c1ccc(C(C)=O)cc1 — not separable, 125 to 127 °C
- CSc1ccc(-c2coc3ccc(-c4nnc(C)o4)cc23)cc1F — higher, 179 to 180 °C
- N#Cc1cnc(N[C@@H]2CCCc3ccccc32)nc1N — higher, 168 °C
- CCN(CC)c1ccc(C(=O)c2ccccc2)c(O)c1 — lower, 46 to 48 °C
- Cc1ccc(S(=O)(=O)Nc2ccc(SC#N)cc2)cc1 — lower, 122 to 124 °C
- COc1cc2c(cc1Nc1ncc(Cl)c(Nc3ccc(N4CCOCC4)cc3OC)n1)CCN(CC(=O)N(C)C)CC2 — lower, 67 to 76 °C
- CS(=O)(=O)c1ccc(-c2c(-c3ccccc3)[nH]c3ccc(Cl)cc23)cc1 — higher, 273 to 275 °C
- c1cn(Cc2ccc3c(c2)-c2[nH]nc(-c4ccsc4)c2C3)nn1 — higher, 249 to 252 °C
- COC(=O)C(CNC(C)=O)c1cccc2ccc(OC)cc12 (configuration not stated) — lower, 118 to 120 °C
- CNc1ccc(C2OC(C)(C)N=C2c2ccccc2)cc1 (configuration not stated) — higher, 138 to 139 °C
- CCOC(=O)c1ccc(C(=O)c2c(N)sc3c2CCN(C(=O)OCc2ccccc2)C3)cc1 — higher, 195 to 196 °C
- Cc1nnc(Sc2nc3ccc(Cl)cc3nc2C)s1 — higher, 189 to 190 °C
- CNC(=O)CCCCN1CCC(C(O)(c2ccc(F)cc2)c2ccc(F)cc2)CC1 — higher, 130 to 131 °C
- CC(C(=O)NO)S(=O)Cc1ccc(Cl)cc1 (configuration not stated) — higher, 132 to 133 °C
- Cc1cccc(C)c1N1CCCCS/C1=N/N=C\c1ccc(-c2ncn(-c3ccc(OC(F)(F)F)cc3)n2)cc1 — lower, 100 to 106 °C
- N=C(Cc1ccccc1)Nc1ncccc1OCc1ccccc1 — lower, 114 to 116 °C
- COc1ccc(-c2cc3ccc(OC)cc3c(=S)[nH]2)cc1 — higher, 188 to 190 °C
- Cn1c(=O)n(CCCN2CCC3(CC2)C(=O)NCN3c2ccccc2)c2ccccc21 — higher, 164 °C
- O=C(OCN1C(=O)C2CCCN2S1(=O)=O)c1c(Cl)cccc1Cl (configuration not stated) — lower, 92 to 93.5 °C
- NC(=O)c1cc2ccccc2cc1N — higher, 234 to 235 °C
- Fc1ccc2onc(CCCN3CCN(c4cc5ccccc5cn4)CC3)c2c1 — higher, 130 to 133 °C
- CN(C)CCN1C(=O)N2[C@H](c3cccc(O)c3)c3[nH]c4ccc(Cl)cc4c3C[C@@]2(C)C1=O (racemic) — higher, 283 to 286 °C
- N#Cc1cc(F)c(F)c(Br)c1Cl — lower, 71 to 72.5 °C
- CC(=O)N1CCC(C(=O)Nc2ccccc2Oc2ccc(Cl)cc2)CC1 — higher, 195 to 196 °C
- O=C(NCc1cccnc1)C(F)(F)F — lower, 102 to 104 °C
